Reference: patent EP0973746B1, “SUBSTITUTED 3-CYANO QUINOLINES” (Wyeth Holdings Corporation, priority 1997, dated 1998)
pIC50: −log10 of the molar value. Where “and” joins values, the source holds several entries; their conditions need not be identical. Identical values can stand only once.

Molecular target: recombinant human MEK 1 (MAPKK) and recombinant human ERK2 (MAPK)
Assay: Mitogen Activated Protein Kinase (MAPK) assay, two component coupled MEK 1 / ERK2;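 further: MEK 1-activated ERK2 phosphorylates MBP or Myc peptide with 33P-ATP, filter capture and scintillation counting, inhibitor preincubated with ERK2 30 min at 0 °C, inhibition relative to uninhibited control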
Type: biochemical
Conditions: separate entries for the same compound = evaluated more than one time
Description: To evaluate inhibitors of the MAP (mitogen activated protein) kinase a two component coupled standard pharmacological test procedure, which measures phosphorylation of a serine/threonine residue in an appropriate sequence in the substrate in the presence and absence of a putative inhibitor, was used. Recombinant human MEK 1 (MAPKK) was first used to activate recombinant human ERK2 (MAPK) and the activated MAPK (ERK) was incubated with substrate (MBP peptide or MYC peptide) in the presence of ATP, Mg^+2 and radiolabeled ^33P ATP. The phosphorylated peptide was captured on a P 81 phosphocellulose filter (paper filter or embedded in microtiter plate) washed and counted by scintillation methods.
The peptide substrates used in the assay are MBP, peptide substrate ([sequence]), or synthetic Myc substrate, ([sequence]•5 TFA. The recombinant enzymes used were prepared as GST fusion proteins of human ERK 2 and human MEK 1. Inhibitor samples were prepared as 10X stocks in 10% DMSO and an appropriate aliquot was used to deliver either 10 ug/ml for a single point screening dose or 100, 10, 1, and 0.1 uM final concentration for a dose response curve. Final DMSO concentrations were less than or equal to 1%.
The reaction was run as follows in 50 mM Tris kinase buffer, pH 7.4 in a reaction volume of 50 ul. The appropriate volume of kinase buffer and inhibitor sample was added to the tube. Appropriate dilution of enzyme was delivered to give 2-5 ug recombinant MAPK (Erk ) per tube. The inhibitor was incubated with MAPK (Erk) for 30 min at 0 deg. […] Recombinant Mek (MAPKK) ( 0.5-2.5 ug) or fully activated Mek (0.05-0.1 units) was added to activate the Erk and incubated for 30 min at 30° C. […] Samples were incubated at 30°C for 30 minutes and the reaction was stopped by adding 25 µl of ice cold 10 %TCA .After samples were chilled on ice for 30 min, 20 µl of sample was transferred onto P 81 phosphocellulose filter paper or appropriate MTP with embedded P 81 filter. Filter papers or MTP were washed 2 times with a large volume of 1% acetic acid, then 2 times with water. The filters or MTP were briefly air dried before addition of scintillant and samples were counted in the appropriate scintillation counter set up for reading ^33P isotope.
The raw data was captured as cpm. Sample replicates were averaged and corrected for background count. Mean cpm data was tabulated by group and % inhibition by a test compound was calculated as (corrected cpm control- corrected. cpm sample/control) X 100 = % inhibition.

| Structure (SMILES) | pIC50 |
| --- | --- |
| CN(C)CC#CC(=O)Nc1ccc2ncc(C#N)c(Nc3ccc(F)c(Br)c3)c2c1 [Example 197, N-[4-[(3-Bromo-4-fluorophenyl)amino]-3-cyano-6-quinolinyl]-4-dimethylamino-2-butynamide] | 4.46 |
| N#Cc1cnc2ccc([N+](=O)[O-])cc2c1Nc1ccc(Sc2ccccc2)c(Cl)c1 [Example 159, 4-[(3-Chloro-4-thiophenoxyphenyl)amino]-6-nitro-3-quinolinecarbonitrile] | < 4.00 |
| COc1cc(N)cc2c(Nc3ccc(C)c(O)c3)c(C#N)cnc12 [Example 344, 6-Amino-4-(3-hydroxy-4-methyl-phenylamino)-8-methoxy-quinoline-3-carbonitrile] | < 4.00 |
| COc1cc([N+](=O)[O-])cc2c(Nc3ccc(C)c(O)c3)c(C#N)cnc12 [Example 341, 4-(3-Hydroxy-4-methyl-phenylamino)-8-methoxy-6-nitro-quinoline-3-carbonitrile] | < 4.00 |
| COc1cc([N+](=O)[O-])cc2c(Nc3ccc(Cl)cc3F)c(C#N)cnc12 [Example 342, 4-(4-chloro-2-fluoro-phenylamino)-8-methoxy-6-nitro-quinoline-3-carbonitrile] | < 4.00 |
| CC#CC(=O)Nc1cccc(Nc2c(C#N)cnc3cc(OC)c(OC)cc23)c1 [Example 266, 4-[3-(2-Butynoylamino)phenylamino]1-6,7-dimethoxy-3-quinolinecarbonitrile] | < 4.00 |
| N#Cc1cnc2ccc([N+](=O)[O-])cc2c1Nc1cccc(I)c1 [Example 131, 4-[(3-Iodophenyl)amino]-6-nitro-3-quinolinecarbonitrile] | < 4.00 |
| N#Cc1cnc2ccc([N+](=O)[O-])cc2c1Nc1ccc(Br)cc1 [Example 153, 4-[(4-Bromophenyl)amino]-6-nitro-3-quinolinecarbonitrile] | < 4.00 |
| CCCOc1cc2ncc(C#N)c(Nc3cccc(Br)c3)c2cc1OCCC [Example 303, 4-(3-Bromophenylamino)-6.7-di-n-propoxy-3-quinolinecarbonitrile] | < 4.00 |
| COc1cc2ncc(C#N)c(Nc3ccc(C)cc3)c2cc1OC [Example 340, 4-(4-methyl-phenylamino)-6,7-dimethoxy-quinoline-3-carbonitrile] | < 4.00 |
| CCOc1cc2ncc(C#N)c(Nc3cccc(C(C)=O)c3)c2cc1OCC [Example 257, 4-(3-acetylphenylamino)-6,7-diethoxy-3-quinolinecarbonitrile] | < 4.00 |
| COc1cc2ncc(C#N)c(Nc3ccccc3CCO)c2cc1OC [Example 301, 4-[2-(2-Hydroxy-ethyl)-phenylamino]-6,7-dimethoxy-quinoline-3-carbonitrile] | 4.92 |
| COc1ccc(Nc2c(C#N)cnc3c(OC)cc([N+](=O)[O-])cc23)cc1O [Example 343, 4-(3-hydroxy-4-methoxy-phenylamino)-8-methoxy-6-nitro-quinoline-3-carbonitrile] | 4.22 |
| COc1cc2ncc(C#N)c(Nc3cccc(Br)c3)c2cc1OCCCN1CCOCC1 [Example 126] | < 4.00 |
| COc1cccc(Nc2c(C#N)cnc3ccc(N)cc23)c1 [Example 141, 6-Amino-4-[(3-methoxyphenyl)amino]-3-quinolinecarbonitrile] | 4.46 |
| COc1cc2ncc(C#N)c(Nc3cccc(O)c3)c2cc1OC [Example 339, 4-(3-Hydroxy-phenylamino)-6,7-dimethoxy-quinoline-3-carbonitrile] | 4.19 and 4.30 |
| COCCOc1ccc2ncc(C#N)c(Nc3cccc(N(C)C)c3)c2c1OCCOC [Example 117] | 4.40 and 4.55 |
| COc1ccc(Nc2c(C#N)cnc3c(OC)cc(N)cc23)cc1O [Example 345, 6-Amino-4-(3-hydroxy-4-methoxy-phenylamino)-8-methoxy-quinoline-3-carbonitrile] | < 4.00 |
| COc1cc2ncc(C#N)c(Nc3cccc(NC(C)=O)c3)c2cc1OC [Example 265, 4-(3-Acetamidophenylamino)-6,7-dimethoxy-3-quinolinecarbonitrile] | 4.70 |
| COc1cc2ncc(C#N)c(Nc3cc(C)c(O)c(C)c3)c2cc1OC [Example 288, 4-(4-Hydroxy-3,5-dimethyl-phenylamino)-6,7-dimethoxy-quinoline-3-carbinitile] | 4.80 |
| COc1cc2ncc(C#N)c(Nc3cccnc3)c2cc1OC [Example 293, 6,7-Dimethoxy-4-(pyridin-3-ylamino)-quinoline-3-carbonitrile] | < 4.00 |
| COc1cc2ncc(C#N)c(Nc3ccc(C)c(Br)c3)c2cc1OC [Example 248, 4-(3-Bromo-4-methyl-phenylamino)-6.7-dimethoxy-quinoline-3-carbonitrile] | 5.10 |
| COc1cc2ncc(C#N)c(Nc3cccc(CO)c3C)c2cc1OC [Example 333, 4-(3-Hydroxymethyl-2-methylphenylamino)-6,7-dimethoxyquinoline-3-carbonitrile] | 5.00 |
| COc1cc2ncc(C#N)c(Nc3ccc(F)c(Cl)c3)c2cc1OCCCN1CCOCC1 [Example 125] | < 4.00 |
| N#Cc1cnc2ccc(N)cc2c1Nc1ccc(F)c(Cl)c1 [Example 149, 6-Amino-4-[(3-chloro-4-fluorophenyl)amino]-3-quinolinecarbonitrile] | 5.70 and 5.40 |
| COc1cc2ncc(C#N)c(Nc3ccc(O)cc3Cl)c2cc1OC [Example 296, 4-(2-Chloro-4-hydroxy-phenylamino)-6,7-dimethoxy-quinoline-3-carbonitrile] | 5.46 |
| N#Cc1cnc2ccc([N+](=O)[O-])cc2c1Nc1ccc(F)c(Cl)c1 [Example 150, 4-[(3-chloro-4-fluorophenyl)amino]-6-nitro-3-quinolinecarbonitrile] | < 4.00 |

The next lines start with the values.

| pIC50 | Structure (SMILES) |
| --- | --- |
| < 4.00 | N#Cc1cnc2ccc([N+](=O)[O-])cc2c1Nc1ccc(Br)c(Br)c1 [Example 377, 4-(3,4-Dibromophenylamino)-6-nitroquinoline-3-carbonitrile] |
| 4.40 | CC#CC(=O)Nc1ccc2ncc(C#N)c(Nc3cccc(Cl)c3)c2c1 [Example 353, N-{4-[(3-Chlorophenyl)amino]-3-cyano-6-quinolinyl}-2-butynamide] |
| < 4.00 | N#Cc1cnc2ccc([N+](=O)[O-])cc2c1Nc1cccc(F)c1 [Example 384, 4-(3-Fluorophenylamino)-6-nitroquinoline-3-carbonitrile] |
| < 4.00 | CN(C)c1cccc(Nc2c(C#N)cnc3ccc([N+](=O)[O-])cc23)c1 [Example 386, 4-(3-Dimethylaminophenylamino)-6-nitroquinoline-3-carbonitrile] |
| < 4.00 and 4.10 | CC#CC(=O)Nc1ccc2ncc(C#N)c(Nc3cccc(I)c3)c2c1 [Example 348, N-{3-Cyano-4-[(3-iodophenyl)amino]-6-quinolinyl}-2-butynamide] |
| < 4.00 | CCC(=O)Nc1ccc2ncc(C#N)c(Nc3cccc(Br)c3)c2c1 [Example 381, N-[4-(3-Bromophenylamino)-3-cyanoquinolin-6-yl]propionamide] |
| < 4.00 | C/C=C/C(=O)Nc1ccc2ncc(C#N)c(Nc3cccc(Br)c3)c2c1 [Example 382, (E)-But-2-enoic Acid [4-(3-Bromophenylamino)-3-cyanoquinolin-6-yl]amide] |
| < 4.00 | CC#CC(=O)Nc1ccc2ncc(C#N)c(Nc3cccc(F)c3)c2c1 [Example 390, But-2-ynoic Acid [4-(3-Fluorophenylamino)-3-cyanoquinolin-6-yl]amide] |
| < 4.00 | CC(C)c1cccc(Nc2c(C#N)cnc3ccc([N+](=O)[O-])cc23)c1 [Example 357, 4-[(3-Isopropylphenyl)amino]-6-nitro-3-quinolinecarbonitrile] |
| 4.49 | C=CC(=O)Nc1ccc2ncc(C#N)c(Nc3ccc(Sc4ccccc4)c(Cl)c3)c2c1 [Example 351, N-{4-[(3-Chloro-4-thiophenoxyphenyl)amino]-3-cyano-6-quinoliny}-2-propenamide] |
| < 4.00 | CC(C)c1cccc(Nc2c(C#N)cnc3ccc(N)cc23)c1 [Example 356, 6-Amino-4-[(3-isopropylphenyl)amino]-3-quinolinecarbonitrile] |
| < 4.00 | N#Cc1cnc2ccc([N+](=O)[O-])cc2c1Nc1ccc(Cl)c(Cl)c1 [Example 362, 4-[(3.4-dichlorophenyl)amino]-6-nitro-3-quinolinecarbonitrile] |
| 4.35 | C=CC(=O)Nc1ccc2ncc(C#N)c(Nc3cccc(C(C)C)c3)c2c1 [Example 355, N-{3-Cyano-4-[(3-isopropylphenyl)amino]-6-quinolinyl}-2-propenamide] |
| < 4.00 | C=CC(=O)Nc1ccc2ncc(C#N)c(Nc3cccc(C)c3)c2c1 [Example 349, N-{3-Cyano-4-[(3-methylphenyl)amino]-6-quinolinyl]-2-propenamide] |
| 4.40 | N#Cc1cnc2ccc(N)cc2c1Nc1ccc(Br)c(Br)c1 [Example 379, 6-Amino-4-(3,4-dibromophenylamino)quinoline-3-carbonitrile] |
| > 6.00 and 5.70 | COc1cc2ncc(C#N)c(Nc3cccc(O)c3C)c2cc1OC [Example 374, 4-(3-Hydroxy-2-methyl-phenylamino)-6,7-dimethoxy-quinoline-3-carbonitrile] |
| < 4.00 | CC#CC(=O)Nc1ccc2ncc(C#N)c(Nc3cccc(C(C)C)c3)c2c1 [Example 354, N-{3-Cyano-4-[(3-isopropylphenyl)amino]-6-quinolinyl}-2-butynamide] |
| < 4.00 | N#Cc1cnc2ccc([N+](=O)[O-])cc2c1Nc1cccc(OC(F)(F)F)c1 [Example 365, 4-[(3-Trifluoromethoxyphenyl)amino]-6-nitro-3-quinolinecarbonitrile] |
| 4.60 and 4.30 | CN(C)c1cccc(Nc2c(C#N)cnc3ccc(N)cc23)c1 [Example 388, 6-Amino-4-(3-dimethylaminophenylamino)quinoline-3-carbonitrile] |
| < 4.00 | CN(C)c1ccc(Nc2c(C#N)cnc3ccc(N)cc23)cc1 [Example 389, 6-Amino-4-(4-dimethylaminophenylamino)quinoline-3-carbonitrile] |
| 4.05 | N#Cc1cnc2ccc(N)cc2c1Nc1cccc(F)c1 [Example 385, 6-Amino-4-(3-fluorophenylamino)quinoline-3-carbonitrile] |
| < 4.00 | CSc1cccc(Nc2c(C#N)cnc3ccc([N+](=O)[O-])cc23)c1 [Example 364, 4-[(3-Methylsulfanylphenyl)amino]-6-nitro-3-quinolinecarbonitrile] |
